These are literature values, as cited in US20050182028A1, “Pharmaceutical formulation for oral delivery of bisphosphates” (priority 2004, published 2005).

Structures are written as SMILES.

The conditions of this data set: background statement.

With `O=P(O)(O)C(O)(Cc1cccnc1)P(=O)(O)O` [risedronate, Risedronate], the oral bioavailability is 0.63%.
